system: HCV pseudoparticles (genotype 1a HCV E1 and E2 envelope, H77C isolate); assay: microbe, parasite or virus in culture; format: cell-based; conditions: Hepatitis C virus, Huh-7, 48 h, HCV pseudoparticle infection of Huh7 cells, luciferase 2 days after infection; average of duplicates

| SMILES | EC50 |
| --- | --- |
| C[C@]12C3C1[C@H]3C[C@H]2NC(=O)C(=O)NC[C@H](NC(=O)c1ccc(Nc2nc(NC3(c4ccc(Cl)cc4)CC3)nc(OCC(F)(F)F)n2)cc1)C(=O)O (some centres unmarked) [Compound 1084] | 0.26 nM |

same assay, conditions: Hepatitis C virus, Huh-7, 48 h, HCV pseudoparticles (genotype 1a, H77C) in Huh7 cells; average of duplicate; luciferase 2 days after infection

| SMILES | EC50 |
| --- | --- |
| Cc1ccc(NC(=O)C(=O)NCC(C)(C)CNC(=O)c2ccc(Nc3nc(NC4(c5ccc(Cl)cc5)CC4)nc(OCC(F)(F)F)n3)cc2F)cc1 [Compound 3554] | 0.029 nM |
| O=C(Nc1ccc(F)cc1)C(=O)N(CCO)CCCNC(=O)c1ccc(Nc2nc(NC3(c4ccc(Cl)cc4)CC3)nc(OCC(F)(F)F)n2)cc1 [Compound 3499] | 0.46 nM |
| CN(CCCN(C)C(=O)c1ccc(Nc2nc(NC3(c4ccc(Cl)cc4)CC3)nc(OCC(F)(F)F)n2)cc1)C(=O)C(=O)Nc1nccs1 [Compound 3430] | 1.45 nM |

same assay, conditions: Hepatitis C virus, Huh-7, 48 h, HCV pseudoparticles, Huh7 cells, luciferase 2 days after infection; average of duplicates

| SMILES | EC50 |
| --- | --- |
| CC(C)(CNC(=O)C(=O)Nc1cc[nH]n1)CNC(=O)c1ccc(Nc2nc(NC3(c4ccc(Cl)cc4)CC3)nc(OCC(F)(F)F)n2)cc1 [Compound 3794] | 0.061 nM |

same assay, conditions: Hepatitis C virus, Huh-7, 48 h, read-out: Activity (EC50 class), HCV pseudoparticle infection of Huh7 cells, luciferase 2 days after infection; EC50 expressed as class A/B

| SMILES | EC50 |
| --- | --- |
| CC1CC(NC(=O)C(=O)NCC[C@H](NC(=O)c2ccc(Nc3nc(NC4(c5ccc(Cl)cc5)CC4)nc(OCC(F)(F)F)n3)cc2)C(=O)O)CC(C)(C)C1 (some centres unmarked) [Compound 1127] | 0.01 to 10 nM |
| O=C(NCC[C@H](NC(=O)c1ccc(Nc2nc(NC3(c4ccc(Cl)cc4)CC3)nc(OCC(F)(F)F)n2)cc1)C(=O)O)C(=O)NC1(Cc2ccccc2)CC1 [Compound 1346] | 0.01 to 10 nM |
| O=C(NCC[C@H](NC(=O)c1ccc(Nc2nc(NC3(c4ccc(Cl)cc4)CC3)nc(OCC(F)(F)F)n2)cc1)C(=O)O)C(=O)NCC1(c2ccccc2)CC1 [Compound 1421] | 0.01 to 10 nM |
| CN(C(=O)C(=O)NCC(C)(C)CNC(=O)c1ccc(Nc2nc(NC3(c4ccc(Cl)cc4)CC3)nc(OCC(F)(F)F)n2)cc1)c1cccc(F)c1 [Compound 1578] | 0.01 to 10 nM |
| COC(=O)[C@H](CNC(=O)C(=O)Nc1cncn1C)NC(=O)c1ccc(Nc2nc(NC3(c4ccc(Cl)cc4)CC3)nc(OCC(F)(F)F)n2)cc1 [Compound 1247] | 0.01 to 10 nM |
| COc1ccccc1CNC(=O)C(=O)NC[C@H](NC(=O)c1ccc(Nc2nc(NC3(c4ccc(Cl)cc4)CC3)nc(OCC(F)(F)F)n2)cc1)C(=O)O [Compound 1165] | 0.01 to 10 nM |
| COC(=O)C(CNC(=O)C(=O)NC1CCN(C(=O)OC(C)(C)C)CC1)NC(=O)c1ccc(Nc2nc(NC3(c4ccc(Cl)cc4)CC3)nc(OCC(F)(F)F)n2)cc1 (centres unmarked) [Compound 1049] | 0.01 to 10 nM |
| CC(C)OC(=O)c1cccc(-c2ccc(NC(=O)C(=O)NCC(C)(C)CNC(=O)c3ccc(Nc4nc(NC5(c6ccc(Cl)cc6)CC5)nc(OCC(F)(F)F)n4)cc3)cc2)c1 [Compound 1491] | 0.01 to 10 nM |
| O=C(NCC[C@H](NC(=O)c1ccc(Nc2nc(NC3(c4ccc(Cl)cc4)CC3)nc(OCC(F)(F)F)n2)cc1)C(=O)O)C(=O)Nc1cccc(C(F)(F)F)c1 [Compound 1271] | 0.01 to 10 nM |
| COC(=O)[C@H](CNC(=O)C(=O)NCCc1c[nH]cn1)NC(=O)c1ccc(Nc2nc(NC3(c4ccc(Cl)cc4)CC3)nc(OCC(F)(F)F)n2)cc1 [Compound 1295] | 10 to 1000 nM |
| C[C@]12C3C1[C@H]3C[C@H]2NC(=O)C(=O)NC[C@H](NC(=O)c1ccc(Nc2nc(NC3(c4ccc(Cl)cc4)CC3)nc(OCC(F)(F)F)n2)cc1)C(=O)O (some centres unmarked) [Compound 1084] | 0.01 to 10 nM |
| COC(=O)[C@H](CNC(=O)C(=O)NCCc1cccc(OC)c1)NC(=O)c1ccc(Nc2nc(NC3(c4ccc(Cl)cc4)CC3)nc(OCC(F)(F)F)n2)cc1 [Compound 1286] | 0.01 to 10 nM |
| CCCc1ccc(NC(=O)C(=O)NCC(C)(C)CNC(=O)c2ccc(Nc3nc(NC4(c5ccc(Cl)cc5)CC4)nc(OCC(F)(F)F)n3)cc2)cc1 [Compound 1573] | 0.01 to 10 nM |
| COC(=O)[C@H](CCNC(=O)C(=O)NCC1CCCc2ccccc21)NC(=O)c1ccc(Nc2nc(NC3(c4ccc(Cl)cc4)CC3)nc(OCC(F)(F)F)n2)cc1 (some centres unmarked) [Compound 1322] | 0.01 to 10 nM |
| CCC(CC)CNC(=O)C(=O)NC[C@H](NC(=O)c1ccc(Nc2nc(NC3(c4ccc(Cl)cc4)CC3)nc(OCC(F)(F)F)n2)cc1)C(=O)OC [Compound 1454] | 0.01 to 10 nM |
| CC(C)[C@@H]1CC[C@@H](C)C[C@H]1NC(=O)C(=O)NC[C@H](NC(=O)c1ccc(Nc2nc(NC3(c4ccc(Cl)cc4)CC3)nc(OCC(F)(F)F)n2)cc1)C(=O)O [Compound 1095] | 0.01 to 10 nM |
| Cc1ccc(CCNC(=O)C(=O)NC[C@H](NC(=O)c2ccc(Nc3nc(NC4(c5ccc(Cl)cc5)CC4)nc(OCC(F)(F)F)n3)cc2)C(=O)O)cc1 [Compound 1404] | 0.01 to 10 nM |
| CCOC(=O)[C@H](CCNC(=O)C(=O)NC)NC(=O)c1ccc(Nc2nc(NC3(c4ccc(Cl)cc4)CC3)nc(OCC(F)(F)F)n2)cc1 [Compound 1027, (S)-ethyl 2-(4-(4-(1-(4-chlorophenyl)cyclopropylamino)-6-(2,2,2-trifluoroethoxy)-1,3,5-triazin-2-ylamino)benzamido)-4-(2-(methylamino)-2-oxoacetamido)butanoate] | 0.01 to 10 nM |
| COc1cccc(-c2ccc(NC(=O)C(=O)NCC(C)(C)CNC(=O)c3ccc(Nc4nc(NC5(c6ccc(Cl)cc6)CC5)nc(OCC(F)(F)F)n4)cc3)cc2)c1 [Compound 1581] | 0.01 to 10 nM |
| COC(=O)[C@H](CCNC(=O)C(=O)Nc1cccc(OC)c1)NC(=O)c1ccc(Nc2nc(NC3(c4ccc(Cl)cc4)CC3)nc(OCC(F)(F)F)n2)cc1 [Compound 1228] | 0.01 to 10 nM |
| CC(C)(CNC(=O)C(=O)Nc1cccc(C(=O)O)c1)CNC(=O)c1ccc(Nc2nc(NC3(c4ccc(Cl)cc4)CC3)nc(OCC(F)(F)F)n2)cc1 [Compound 1485] | 0.01 to 10 nM |
| COC(=O)[C@H](CCNC(=O)C(=O)NCC1CCc2ccccc21)NC(=O)c1ccc(Nc2nc(NC3(c4ccc(Cl)cc4)CC3)nc(OCC(F)(F)F)n2)cc1 (some centres unmarked) [Compound 1324] | 0.01 to 10 nM |
| COC(=O)[C@H](CNC(=O)C(=O)NCc1ccc(OC)cc1)NC(=O)c1ccc(Nc2nc(NC3(c4ccc(Cl)cc4)CC3)nc(OCC(F)(F)F)n2)cc1 [Compound 1153] | 0.01 to 10 nM |
| COC(=O)[C@H](CNC(=O)C(=O)NCc1cccc(F)c1F)NC(=O)c1ccc(Nc2nc(NC3(c4ccc(Cl)cc4)CC3)nc(OCC(F)(F)F)n2)cc1 [Compound 1148] | 0.01 to 10 nM |
| O=C(NCc1cc(F)ccc1F)C(=O)NC[C@H](NC(=O)c1ccc(Nc2nc(NC3(c4ccc(Cl)cc4)CC3)nc(OCC(F)(F)F)n2)cc1)C(=O)O [Compound 1169] | 0.01 to 10 nM |
| COc1ccccc1CCNC(=O)C(=O)NC[C@H](NC(=O)c1ccc(Nc2nc(NC3(c4ccc(Cl)cc4)CC3)nc(OCC(F)(F)F)n2)cc1)C(=O)O [Compound 1397] | 0.01 to 10 nM |
| O=C(NCC[C@H](NC(=O)c1ccc(Nc2nc(NC3(c4ccc(Cl)cc4)CC3)nc(OCC(F)(F)F)n2)cc1)C(=O)O)C(=O)Nc1cccc(F)c1 [Compound 1269] | 0.01 to 10 nM |

same assay, conditions: Hepatitis C virus, Huh-7, 48 h, read-out: Activity (EC50 class), HCV pseudoparticles, Huh7 cells, luciferase 2 days after infection; average of duplicates

| SMILES | EC50 |
| --- | --- |
| COc1ccc2nc(NC(=O)C(=O)NCC(C)(C)CNC(=O)c3ccc(Nc4nc(NC5(c6ccc(Cl)cc6)CC5)nc(OCC(F)(F)F)n4)cc3)sc2c1 [Compound 3816] | 0.01 to 10 nM |
| CC(C)c1ccc(COc2nc(Nc3ccc(C(=O)NCC(C)(C)CNC(=O)C(=O)Nc4ccc(F)cc4F)c(F)c3)nc(NC3(c4ccc(Cl)cc4)CC3)n2)cc1 [Compound 3835, N^1-(3-(4-((4-((1-(4-chlorophenyl)cyclopropyl)amino)-6-((4-isopropylbenzyl)oxy)-1,3,5-triazin-2-yl)amino)-2-fluorobenzamido)-2,2-dimethylpropyl)-N^2-(2,4-difluorophenyl)oxalamide] | 0.01 to 10 nM |
| CC(C)(CNC(=O)C(=O)Nc1cc[nH]n1)CNC(=O)c1ccc(Nc2nc(NC3(c4ccc(Cl)cc4)CC3)nc(OCC(F)(F)F)n2)cc1 [Compound 3794] | 0.01 to 10 nM |

same assay, conditions: Hepatitis C virus, Huh-7, read-out: Activity (EC50 class), HCV pseudoparticles (genotype 1a, H77C) in Huh7 cells; EC50 expressed as class A/B

| SMILES | EC50 |
| --- | --- |
| COC(=O)[C@H](CCNC(=O)C(=O)Nc1ccc(Cc2ccncc2)cc1)NC(=O)c1ccc(Nc2nc(NC3(c4ccc(Cl)cc4)CC3)nc(OCC(F)(F)F)n2)cc1 [Compound 3123] | 0.01 to 10 nM |
| O=C(NCC[C@H](NC(=O)c1ccc(Nc2nc(NC3(c4ccc(Cl)cc4)CC3)nc(OCC(F)(F)F)n2)cc1)C(=O)O)C(=O)Nc1ccc(C2=CCC(N3CCOCC3)=N2)cc1 [Compound 3539] | 10 to 1000 nM |
| CC(C)(CNC(=O)C(=O)Nc1ccccc1C1CC1)CNC(=O)c1ccc(Nc2nc(NC3(c4ccc(Cl)cc4)CC3)nc(OCC(F)(F)F)n2)cc1 [Compound 3076] | 0.01 to 10 nM |
| CC(C)(CNC(=O)C(=O)Nc1ccc(Cl)cc1Cl)CNC(=O)c1ccc(Nc2nc(NC3(c4ccc(Cl)cc4)CC3)nc(OCC(F)(F)F)n2)cc1 [Compound 3453] | 0.01 to 10 nM |
| COC(=O)[C@H](CNC(=O)C(=O)Nc1ccc(-n2cnc(Cl)c2Cl)cc1)NC(=O)c1ccc(Nc2nc(NC3(c4ccc(Cl)cc4)CC3)nc(OCC(F)(F)F)n2)cc1 [Compound 3095] | 0.01 to 10 nM |
| CC(C)CNC(=O)C(=O)NC(C)(C)CNC(=O)c1ccc(Nc2nc(NC3(c4ccc(Cl)cc4)CC3)nc(OCC(F)(F)F)n2)cc1 [Compound 3442] | 0.01 to 10 nM |
| O=C(Nc1cccc(F)c1)C(=O)N1CCCC(CNC(=O)c2ccc(Nc3nc(NC4(c5ccc(Cl)cc5)CC4)nc(OCC(F)(F)F)n3)cc2)C1 (centres unmarked) [Compound 3479] | 0.01 to 10 nM |
| Cc1ccc(NC(=O)C(=O)NCC(C)(C)CNC(=O)c2ccc(Nc3nc(NC4(c5ccc(Cl)cc5)CC4)nc(OCC(F)(F)F)n3)cc2F)cc1 [Compound 3554] | 0.01 to 10 nM |
| CC(C)(CNC(=O)C(=O)Nc1ccc(C(F)(F)F)cc1)CNC(=O)c1ccc(Nc2nc(NC3(c4ccc(Cl)cc4)CC3)nc(OCC(F)(F)F)n2)cc1 [Compound 3011] | 0.01 to 10 nM |
| O=C(Nc1ccc(F)cc1)C(=O)N(CCO)CCCNC(=O)c1ccc(Nc2nc(NC3(c4ccc(Cl)cc4)CC3)nc(OCC(F)(F)F)n2)cc1 [Compound 3499] | 0.01 to 10 nM |
| COCc1ccc(NC(=O)C(=O)NC[C@H](NC(=O)c2ccc(Nc3nc(NC4(c5ccc(Cl)cc5)CC4)nc(OCC(F)(F)F)n3)cc2)C(=O)OC)cc1 [Compound 3205] | 0.01 to 10 nM |
| O=C(NC/C(=N/C(=O)c1ccc(Nc2nc(NC3(c4ccc(Cl)cc4)CC3)nc(OCC(F)(F)F)n2)cc1)C(=O)O)C(=O)Nc1ccc(-c2nnco2)cc1 [Compound 3161] | 0.01 to 10 nM |
| O=C(NCC(O)CNC(=O)c1ccc(Nc2nc(NC3(c4ccc(Cl)cc4)CC3)nc(OCC(F)(F)F)n2)cc1)C(=O)N1CCCCC1 (centres unmarked) [Compound 3465] | 0.01 to 10 nM |
| CN(CCCN(C)C(=O)c1ccc(Nc2nc(NC3(c4ccc(Cl)cc4)CC3)nc(OCC(F)(F)F)n2)cc1)C(=O)C(=O)Nc1nccs1 [Compound 3430] | 0.01 to 10 nM |
| CC(C)(CNC(=O)C(=O)NCc1ccc(Cl)cc1)CNC(=O)c1ccc(Nc2nc(NC3(c4ccc(Cl)cc4)CC3)nc(OCC(F)(F)F)n2)cc1 [Compound 3009] | 0.01 to 10 nM |

Reference: patent publication US8916702B2 (priority 2012, dated 2014)
